Source: US8273769B2, “Phenoxy acetic acid derivatives” (Merck Serono SA, priority 2009, dated 2012)

Key:
[1] = In vivo pharmacokinetic evaluation in mouse; set-up: species or system C57BL/6 female mice; settings: mice; for clearance / bioavailability / AUC: female, C57BL/6, mouse, plasma; for clearance: iv, i.v. 1 mg/Kg; for AUC po (5 mg/Kg) / AUC: oral gavage 5 mg/Kg; for bioavailability: po, 5 mg/kg
Procedure: In order to study the pharmacokinetic (PK) profile of test compounds in vivo, Sprague Dawley male rats or C57BL/6 female mice were dosed intravenously or after oral gavage. For both species, test compounds were dosed in solution at 1 mg/kg for i.v. route (10% ethanol, 10% N,N-dimethylacetamide, 30% propylene glycol, 50% water, v/v) and in suspension at 5 mg/kg (0.5% carboxymethylcellulose suspension, containing 0.25% Tween 20 in water) for oral gavage. PK profile in rat was obtained from 3 animals per dosing route and mouse PK profile was determined from 3 animals for each time points. The volume of administration was 2 mL/kg for i.v. dosing in both species and either 5 mL/kg (rat) or 10 mL/kg (mouse) for oral gavage. Blood samples (100 μL/time point) were collected at 0.083 (5 min), 0.25, 0.5, 1, 4, 7 and 24 hours post-dose for i.v. dosing, and at 0.5, 1, 4, 7 and 24 h for oral dosing, into heparin-Li+ containing tubes. For rats, all blood samples were collected trough a catheter in the carotid artery (placed in the artery the day before the experiment), under light isoflurane anesthesia, and stored on ice until centrifugation and plasma isolation. For mouse, blood samples were collected from intracardiac puncture at sacrifice at each time point and processed as described above for the rat. Plasma samples were stored frozen until analysis (−20° C. to −70° C.). For bioanalysis, samples were processed by protein precipitation (acetonitrile, formic acid 0.1%, addition of 3 volumes) after addition of one internal standard and analysed using a sensitive and selective LC/MS/MS method. An aliquot of the resulting supernatant was subject to LC/MS/MS analysis using a reverse phase column (Waters Xterra, C8, (3.5 μm particle size, 2.1×50 mm) and a short gradient (1 min) from (Solvent A) 85% water, 15% acetonitrile and 0.1% formic acid to (Solvent B) 90% acetonitrile, 10% water and 0.1% formic acid followed by isocratic conditions of Solvent B for 3.5 min at 0.4 mL/min. Column effluent was monitored using a Sciex API 4000 triple quadrupole mass spectrometer with a Turbo V electrospray ion source. Unknown concentrations of test compounds were determined using a calibration curve ranging from 1 to 3000 ng/mL.

[2] = biological target: T1, CRTH2 (Homo sapiens, UniProt Q9Y5Y4); test: [35S]GTPγS binding assay (CHO-CRTH2 cell membranes); format: biochemical; set-up: expressed in transfected cells; host or cells: CHO-CRTH2 cells; settings: for Emax: inverse agonists, 100% of Emax = activity with 1 μM PGD2; for IC50: antagonist mode, fixed concentration of PGD2 (EC80)
T1 sequence (Q9Y5Y4 1-395): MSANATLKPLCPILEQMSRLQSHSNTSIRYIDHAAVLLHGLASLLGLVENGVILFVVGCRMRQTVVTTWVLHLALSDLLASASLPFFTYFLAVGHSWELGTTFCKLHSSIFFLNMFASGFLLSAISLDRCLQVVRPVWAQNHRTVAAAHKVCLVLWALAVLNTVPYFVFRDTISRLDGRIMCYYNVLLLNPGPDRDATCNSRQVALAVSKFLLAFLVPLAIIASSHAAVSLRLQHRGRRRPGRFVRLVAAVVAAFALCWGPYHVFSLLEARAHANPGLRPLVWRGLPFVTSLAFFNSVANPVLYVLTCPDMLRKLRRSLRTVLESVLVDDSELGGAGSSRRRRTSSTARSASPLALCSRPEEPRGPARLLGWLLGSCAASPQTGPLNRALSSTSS
Procedure: Adherent CHO cells expressing hCRTH2 (Euroscreen, Belgium) were cultured in 225 cm^2 cell culture flasks (Corning, USA) in 30 ml of medium. After two rinses of phosphate buffered saline (PBS), cells were harvested in 10 ml of PBS containing 1 mM EDTA, centrifuged at 500×g for 5 min at 4° C. and frozen at −80° C. The pellet was re-suspended in 50 mM Tris-HCl, pH 7.4, 2 mM EDTA, 250 mM Sucrose, containing protease inhibitor cocktail tablets, (Complete EDTA-free, Roche, Germany) and incubated 30 min at 4° C. Cells were disrupted by nitrogen cavitation (Parr Instruments, USA) at 4° C. (800 p.s.i. for 30 min), and centrifuged at 500×g for 10 min at 4° C. Pellet containing nuclei and cellular debris was discarded and supernatant was centrifuged 60 min at 4° C. at 45000×g. Membrane pellet was re-suspended in storage buffer (10 mM HEPES/KOH pH 7.4, 1 mM EDTA, 250 mM sucrose, protease inhibitor cocktail tablets) using Dounce homogenization and frozen in liquid nitrogen, and stored at −80° C.
The [^35S]GTPγS assay measures the increase in guanine nucleotide exchange at G-proteins in cell membranes, resulting from agonist (PGD2) binding to CRTH2. This process can be monitored in vitro by incubating cell membranes containing G-proteins and CRTH2 with GDP and [^35S]GTPγS, a radiolabeled, hydrolysis-resistant analogue of GTP (see, Harrison et al., Life Sciences 74, 489-508, 2003). The addition of a Compounds of Formula (I) results in binding to CRTH2 and thus in an inhibition of agonist binding, which can be monitored as inhibition of the stimulation of GTP/GDP exchange.
Briefly, Compounds of Formula (I) are incubated in 96-well scintillating white polystyrene plates (Perkin Elmer, USA) in a final volume of 200 μl containing 20 mM HEPES/KOH pH 7.4, 3 mM MgCl2, 10 μg/ml Saponin, 5 μM GDP, 75 mM NaCl and 2% of dimethylsulphoxide (DMSO). Reaction is triggered by the addition of 5-10 μg of CHO-CRTH2 cell membranes and 0.15 nM [^35S]GTPγS. After 60 min incubation at 30° C., reaction is stopped by centrifugation at 700×g, at 4° C. for 10 minutes and supernatant is removed. The radioactivity coming from the [^35S]GTPγS bound on centrifuged cell membranes is recorded using a 1450 Micro-beta scintillation counter. For IC50 determination, increasing concentrations of compounds are incubated in presence of a fixed concentration of PGD2 (EC80). For EC50 measurements, compounds are incubated without addition of PGD2. Basal [^35S]GTPγS activity is determined without addition of any ligands or compounds. 100% [^35S]GTPγS activity is measured by the addition of 1 μM of PGD2.

Row | SMILES | clearance [1] [mL/min/kg] | Oral bioavailability [1] [%] | AUC po (5 mg/Kg) [1] [ng·h/mL] | Emax [2] [%] | bioavailability [1] [%] | IC50 [2] [nM] | AUC [1] [ng·h/mL]
1 | CCCS(=O)(=O)c1cccc(C#Cc2cc(Cl)ccc2OCC(=O)O)c1 [Example 17, (4-chloro-2-{[3-(propylsulfonyl)phenyl]ethynyl}phenoxy)acetic acid] | 5 | 37 | 5768 | – | – | – | –
2 | CCCS(=O)(=O)c1ccc(F)c(C#Cc2cc(Cl)ccc2OCC(=O)O)c1 [Example 89, (4-chloro-2-{[2-fluoro-5-(propylsulfonyl)phenyl]ethynyl}phenoxy)acetic acid] | 6.67 | 63 | – | – | – | – | 6750
3 | CCCS(=O)(=O)c1ccc(Cl)c(C#Cc2cc(Cl)ccc2OCC(=O)O)c1 [Example 101, (4-chloro-2-{[2-chloro-5-(propylsulfonyl)phenyl]ethynyl}phenoxy)acetic acid] | 16.7 | – | 5795 | – | 110 | – | –
4 | CCCS(=O)(=O)c1ccc(C)c(C#Cc2cc(Cl)ccc2OCC(=O)O)c1 [Example 38, (4-chloro-2-{[2-methyl-5-(propylsulfonyl)phenyl]ethynyl}phenoxy)acetic acid] | 16.7 | – | 3685 | – | 80 | 6 | –
5 | CC(C)S(=O)(=O)c1ccc(Cl)c(C#Cc2cc(Cl)ccc2OCC(=O)O)c1 [Example 103, (4-chloro-2-{[2-chloro-5-(isopropylsulfonyl)phenyl]ethynyl}phenoxy)acetic acid] | 11.7 | 64 | 4889 | – | – | – | –

Now from value to compound:

Row | clearance [1] [mL/min/kg] | Oral bioavailability [1] [%] | AUC po (5 mg/Kg) [1] [ng·h/mL] | Emax [2] [%] | bioavailability [1] [%] | IC50 [2] [nM] | AUC [1] [ng·h/mL] | SMILES
6 | 1.67 | 57 | 30942 | -17 | – | – | – | O=C(O)COc1ccc(Cl)cc1C#Cc1ccc2c(c1)S(=O)(=O)c1ccccc1-2 [Example 154, {4-chloro-2-[(5,5-dioxidodibenzo[b,d]thien-3-yl)ethynyl]phenoxy}acetic acid]
7 | 5.83 | – | 18691 | – | 130 | 4 | – | CC(C)S(=O)(=O)c1ccc(F)c(C#Cc2cc(Cl)ccc2OCC(=O)O)c1 [Example 102, (4-chloro-2-{[2-fluoro-5-(isopropylsulfonyl)phenyl]ethynyl}phenoxy)acetic acid]
8 | 10 | 58 | 4880 | -13 | – | – | – | CN(C)S(=O)(=O)c1ccc(F)c(C#Cc2cc(Cl)ccc2OCC(=O)O)c1 [Example 107, [4-chloro-2-({5-[(dimethylamino)sulfonyl]-2-fluorophenyl}ethynyl)phenoxy]acetic acid]
9 | 13.3 | 95 | – | – | – | 126 | 6210 | CN(C)S(=O)(=O)c1cncc(C#Cc2cc(Cl)ccc2OCC(=O)O)c1 [Example 35, [4-chloro-2-({5-[(dimethylamino)sulfonyl]pyridin-3-yl}ethynyl)phenoxy]acetic acid]
